Measured values: PubChem BioAssay (NCI)
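Briefly, cells in 96-well plates were exposed to five compound concentrations for 48 h, and endpoints were estimated by linear interpolation. At the GI50, growth is halved. TGI: concentration producing complete growth inhibition.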

Assays:
Assay in all cases: inhibition of tumour cell growth, NCI panel, 48 h
UACC-257 melanoma = test system: UACC-257 melanoma
HOP-62 NSCLC = test system: HOP-62 NSCLC
PC-3 prostate = test system: PC-3 prostate
RPMI-8226 leukemia = test system: RPMI-8226 leukemia
HCT-116 colon = test system: HCT-116 colon
A549 NSCLC = test system: A549 NSCLC
SF-539 CNS = test system: SF-539 CNS
NCI-H23 lung = test system: NCI-H23 lung
OVCAR-5 ovarian = test system: OVCAR-5 ovarian
MOLT-4 leukemia = test system: MOLT-4 leukemia
SNB-75 CNS = test system: SNB-75 CNS
UO-31 renal = test system: UO-31 renal
COLO 205 colon = test system: COLO 205 colon
SW-620 colon = test system: SW-620 colon
TK-10 renal = test system: TK-10 renal
SF-268 CNS = test system: SF-268 CNS
SF-295 CNS = test system: SF-295 CNS
SN12C renal = test system: SN12C renal
OVCAR-8 ovarian = test system: OVCAR-8 ovarian
SK-MEL-5 melanoma = test system: SK-MEL-5 melanoma
DU-145 prostate = test system: DU-145 prostate
OVCAR-3 ovarian = test system: OVCAR-3 ovarian
U251 CNS = test system: U251 CNS
SK-MEL-28 melanoma = test system: SK-MEL-28 melanoma
NCI-H522 lung = test system: NCI-H522 lung
OVCAR-4 ovarian = test system: OVCAR-4 ovarian
MALME-3M melanoma = test system: MALME-3M melanoma
BT-549 breast = test system: BT-549 breast
KM12 colon = test system: KM12 colon
RXF 393 renal = test system: RXF 393 renal
HT29 colon = test system: HT29 colon
NCI/ADR-RES ovarian = test system: NCI/ADR-RES ovarian
A498 renal = test system: A498 renal
SK-MEL-2 melanoma = test system: SK-MEL-2 melanoma
CAKI-1 renal = test system: CAKI-1 renal
HCT-15 colon = test system: HCT-15 colon
IGROV1 ovarian = test system: IGROV1 ovarian
LOX IMVI melanoma = test system: LOX IMVI melanoma
SR leukemia = test system: SR leukemia
MDA-MB-435 = test system: MDA-MB-435
NCI-H226 lung = test system: NCI-H226 lung
MCF7 breast = test system: MCF7 breast
UACC-62 melanoma = test system: UACC-62 melanoma
NCI-H460 lung = test system: NCI-H460 lung
CCRF-CEM leukemia = test system: CCRF-CEM leukemia
T-47D breast = test system: T-47D breast
ACHN renal = test system: ACHN renal
M14 melanoma = test system: M14 melanoma
HS 578T breast = test system: HS 578T breast
786-0 renal = test system: 786-0 renal
SNB-19 CNS = test system: SNB-19 CNS
MDA-MB-231 breast = test system: MDA-MB-231 breast
K-562 leukemia = test system: K-562 leukemia
SK-OV-3 ovarian = test system: SK-OV-3 ovarian
HL-60(TB) leukemia = test system: HL-60(TB) leukemia
HOP-92 NSCLC = test system: HOP-92 NSCLC
HCC-2998 colon = test system: HCC-2998 colon

CC(=O)N[C@@H](Cc1ccc(OP(=O)(O)O)cc1)C(=O)N[C@H]1CCC(=O)N2CCC[C@@H](C(=O)Nc3cccc4ccccc34)N2C1=O
GI50 (UACC-257 melanoma): > 25 µM
TGI (UACC-257 melanoma): > 25 µM
GI50 (HOP-62 NSCLC): > 25 µM
TGI (HOP-62 NSCLC): > 25 µM
GI50 (PC-3 prostate): > 25 µM
TGI (PC-3 prostate): > 25 µM
GI50 (RPMI-8226 leukemia): > 25 µM
TGI (RPMI-8226 leukemia): > 25 µM
GI50 (HCT-116 colon): > 25 µM
TGI (HCT-116 colon): > 25 µM
GI50 (A549 NSCLC): > 25 µM
TGI (A549 NSCLC): > 25 µM
GI50 (SF-539 CNS): > 25 µM
TGI (SF-539 CNS): > 25 µM
GI50 (NCI-H23 lung): > 25 µM
TGI (NCI-H23 lung): > 25 µM
GI50 (OVCAR-5 ovarian): > 25 µM
TGI (OVCAR-5 ovarian): > 25 µM
GI50 (MOLT-4 leukemia): > 25 µM
TGI (MOLT-4 leukemia): > 25 µM
GI50 (SNB-75 CNS): > 19.8 µM
TGI (SNB-75 CNS): > 25 µM
GI50 (UO-31 renal): > 21.4 µM
TGI (UO-31 renal): > 25 µM
GI50 (COLO 205 colon): > 25 µM
TGI (COLO 205 colon): > 25 µM
GI50 (SW-620 colon): > 25 µM
TGI (SW-620 colon): > 25 µM
GI50 (TK-10 renal): > 25 µM
TGI (TK-10 renal): > 25 µM
GI50 (SF-268 CNS): > 25 µM
TGI (SF-268 CNS): > 25 µM
GI50 (SF-295 CNS): > 25 µM
TGI (SF-295 CNS): > 25 µM
GI50 (SN12C renal): > 25 µM
TGI (SN12C renal): > 25 µM
GI50 (OVCAR-8 ovarian): > 25 µM
TGI (OVCAR-8 ovarian): > 25 µM
GI50 (SK-MEL-5 melanoma): > 25 µM
TGI (SK-MEL-5 melanoma): > 25 µM
GI50 (DU-145 prostate): > 25 µM
TGI (DU-145 prostate): > 25 µM
GI50 (OVCAR-3 ovarian): > 25 µM
TGI (OVCAR-3 ovarian): > 25 µM
GI50 (U251 CNS): > 25 µM
TGI (U251 CNS): > 25 µM
GI50 (SK-MEL-28 melanoma): > 25 µM
TGI (SK-MEL-28 melanoma): > 25 µM
GI50 (NCI-H522 lung): > 25 µM
TGI (NCI-H522 lung): > 25 µM
GI50 (OVCAR-4 ovarian): > 25 µM
TGI (OVCAR-4 ovarian): > 25 µM
GI50 (MALME-3M melanoma): > 25 µM
TGI (MALME-3M melanoma): > 25 µM
GI50 (BT-549 breast): > 25 µM
TGI (BT-549 breast): > 25 µM
GI50 (KM12 colon): > 25 µM
TGI (KM12 colon): > 25 µM
GI50 (RXF 393 renal): > 25 µM
TGI (RXF 393 renal): > 25 µM
GI50 (HT29 colon): > 25 µM
TGI (HT29 colon): > 25 µM
GI50 (NCI/ADR-RES ovarian): > 25 µM
TGI (NCI/ADR-RES ovarian): > 25 µM
GI50 (A498 renal): > 25 µM
TGI (A498 renal): > 25 µM
GI50 (SK-MEL-2 melanoma): > 25 µM
TGI (SK-MEL-2 melanoma): > 25 µM
GI50 (CAKI-1 renal): > 25 µM
TGI (CAKI-1 renal): > 25 µM
GI50 (HCT-15 colon): > 25 µM
TGI (HCT-15 colon): > 25 µM
GI50 (IGROV1 ovarian): > 25 µM
TGI (IGROV1 ovarian): > 25 µM
GI50 (LOX IMVI melanoma): > 25 µM
TGI (LOX IMVI melanoma): > 25 µM
GI50 (SR leukemia): > 25 µM
TGI (SR leukemia): > 25 µM
GI50 (MDA-MB-435): > 25 µM
TGI (MDA-MB-435): > 25 µM
GI50 (NCI-H226 lung): > 25 µM
TGI (NCI-H226 lung): > 25 µM
GI50 (MCF7 breast): > 25 µM
TGI (MCF7 breast): > 25 µM
GI50 (UACC-62 melanoma): > 25 µM
TGI (UACC-62 melanoma): > 25 µM
GI50 (NCI-H460 lung): > 25 µM
TGI (NCI-H460 lung): > 25 µM
GI50 (CCRF-CEM leukemia): > 25 µM
TGI (CCRF-CEM leukemia): > 25 µM
GI50 (T-47D breast): > 25 µM
TGI (T-47D breast): > 25 µM
GI50 (ACHN renal): > 25 µM
TGI (ACHN renal): > 25 µM
GI50 (M14 melanoma): > 25 µM
TGI (M14 melanoma): > 25 µM
GI50 (HS 578T breast): > 25 µM
TGI (HS 578T breast): > 25 µM
GI50 (786-0 renal): > 25 µM
TGI (786-0 renal): > 25 µM
GI50 (SNB-19 CNS): > 25 µM
TGI (SNB-19 CNS): > 25 µM
GI50 (MDA-MB-231 breast): > 25 µM
TGI (MDA-MB-231 breast): > 25 µM
GI50 (K-562 leukemia): > 25 µM
TGI (K-562 leukemia): > 25 µM
GI50 (SK-OV-3 ovarian): > 25 µM
TGI (SK-OV-3 ovarian): > 25 µM
GI50 (HL-60(TB) leukemia): > 25 µM
TGI (HL-60(TB) leukemia): > 25 µM
GI50 (HOP-92 NSCLC): > 23.9 µM
TGI (HOP-92 NSCLC): > 25 µM
GI50 (HCC-2998 colon): > 25 µM
TGI (HCC-2998 colon): > 25 µM
